In US4532255A, “Amidine compounds and anticomplement agent comprising same” (Torii & Co., Ltd., priority 1980, dated 1985):
Read-outs that look alike come from different tables or passages of the source.

Legend:
[1] = target: T1, C1s (Homo sapiens, UniProt P09871); assay: biochemical
T1 sequence (P09871 438-688 limits assumed): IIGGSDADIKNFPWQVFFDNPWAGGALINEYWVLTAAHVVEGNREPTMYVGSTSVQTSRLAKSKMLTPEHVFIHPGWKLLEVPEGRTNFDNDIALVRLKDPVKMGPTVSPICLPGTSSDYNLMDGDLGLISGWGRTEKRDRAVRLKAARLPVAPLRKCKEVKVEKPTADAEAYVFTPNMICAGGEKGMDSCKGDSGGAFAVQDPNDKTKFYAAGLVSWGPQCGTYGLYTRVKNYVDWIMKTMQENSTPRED
T1 sequence (P09871 16-437 partner limits assumed): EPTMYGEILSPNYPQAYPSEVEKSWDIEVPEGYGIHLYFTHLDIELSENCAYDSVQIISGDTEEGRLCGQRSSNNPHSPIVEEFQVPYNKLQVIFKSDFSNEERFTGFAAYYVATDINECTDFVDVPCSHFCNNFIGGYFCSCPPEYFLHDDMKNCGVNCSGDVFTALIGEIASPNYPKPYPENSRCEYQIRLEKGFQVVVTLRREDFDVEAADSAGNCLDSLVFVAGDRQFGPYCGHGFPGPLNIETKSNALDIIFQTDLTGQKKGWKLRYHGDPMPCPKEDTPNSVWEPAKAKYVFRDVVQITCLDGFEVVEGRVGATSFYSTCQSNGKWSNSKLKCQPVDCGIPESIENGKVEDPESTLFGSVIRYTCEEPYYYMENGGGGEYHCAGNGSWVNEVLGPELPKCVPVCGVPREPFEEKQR
Protocol: The anti-Cl esterase (Clr, Cls) activity was determined according to the method of Okamura et al. [K. Okamura, M. Muramatsu and S. Fujii, Biochem. Biophys. […] The figures in Table 2 have the following meanings:
Cls: Molar concentration of the test compound which inhibits 50% of the ability of Cls to hydrolyse ATEE (acetyltyrosin ethyl ester).

[2] = target: T2, C1r (Homo sapiens, UniProt P00736); assay: Anti-C1 esterase (C1r) activity (hydrolysis of AAME); type: biochemical; conditions: for IC50: AAME hydrolysis, read-out: Anti-C1 activity, C1r ID50
T2 sequence (P00736 464-705 limits assumed): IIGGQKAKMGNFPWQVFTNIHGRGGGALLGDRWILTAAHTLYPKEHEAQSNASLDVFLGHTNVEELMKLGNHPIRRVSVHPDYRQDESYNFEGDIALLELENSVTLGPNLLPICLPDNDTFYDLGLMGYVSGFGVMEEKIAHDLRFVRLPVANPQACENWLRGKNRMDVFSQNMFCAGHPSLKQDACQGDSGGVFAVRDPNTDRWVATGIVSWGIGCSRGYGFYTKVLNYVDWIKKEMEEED
T2 sequence (P00736 18-463 partner limits assumed): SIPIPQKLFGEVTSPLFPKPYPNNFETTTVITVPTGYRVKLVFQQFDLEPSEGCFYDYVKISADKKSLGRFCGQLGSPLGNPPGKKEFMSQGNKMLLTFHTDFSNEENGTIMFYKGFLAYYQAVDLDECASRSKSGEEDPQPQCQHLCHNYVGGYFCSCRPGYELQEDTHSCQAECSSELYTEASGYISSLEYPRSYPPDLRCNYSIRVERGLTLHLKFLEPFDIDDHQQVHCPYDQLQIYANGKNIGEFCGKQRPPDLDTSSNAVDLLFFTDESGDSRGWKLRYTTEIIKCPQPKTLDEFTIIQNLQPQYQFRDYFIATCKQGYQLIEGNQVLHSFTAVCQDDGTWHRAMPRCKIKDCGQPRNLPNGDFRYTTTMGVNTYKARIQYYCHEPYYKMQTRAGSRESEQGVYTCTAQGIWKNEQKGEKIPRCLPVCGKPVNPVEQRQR
Protocol: The anti-Cl esterase ([…]) activity was determined according to the method of Okamura et al. [K. Okamura, M. Muramatsu and S. Fujii, Biochem. Biophys.

[3] = tested on: Kallikrein; assay: Anti-kallikrein activity (hydrolysis of TAME); type: biochemical; conditions: at 1×10^-5 M
[4] = target: Plasmin (Homo sapiens, UniProt P00747); assay: Anti-plasmin activity (hydrolysis of TAME); type: biochemical; conditions: for IC50: molar concentration inhibiting 50% of TAME hydrolysis, read-out: Plasmin ID50; for inhibition at 10 µM: at 1×10^-5 M, read-out: Plasmin percentage inhibition
Protocol: (§1) The anti-trypsin, anti-plasmin, anti-kallikrein and anti-thrombin activities were determined according to the method of Muramatsu et al. [M. Muramatsu, T. Onishi, S. Makino, Y. Hayashi and S. Fujii, J. of Biochem., 58, 214 (1965)]. […] The compound No. corresponds to the compound number shown in Examples.

[5] = target: Thrombin (Homo sapiens, UniProt P00734); assay: biochemical; conditions: for IC50: molar concentration inhibiting 50% of TAME hydrolysis, read-out: Thrombin ID50; for inhibition at 10 µM: at 1×10^-5 M, read-out: Thrombin percentage inhibition
Protocol: The anti-trypsin, anti-plasmin, anti-kallikrein and anti-thrombin activities were determined according to the method of Muramatsu et al. [M. Muramatsu, T. Onishi, S. Makino, Y. Hayashi and S. Fujii, J. of Biochem., 58, 214 (1965)]. The data summarized in Table 1 are expressed in terms of molar concentration (ID50) of the test compound which inhibits 50% of the activity of each enzyme to hydrolyze TAME (tosylalginine methyl ester). The compound No. corresponds to the compound number shown in Examples.

[6] = tested on: complement mediated hemolysis; assay: Inhibition of complement mediated hemolysis; type: cell-based
Protocol: The principle of this method is based on the fact that hemolysis is caused by the activation of complement, when the latter is added to a complex (immune complex) of erythrocytes and the antibody thereof. The degree of hemolysis varies in proportion to the amount of complement added. Therefore, when a known amount of complement admixed with a C1 esterase inhibitor is used, the hemolysis must be suppressed in proportion to the inhibitory activity.

[7] = target: T3, Trypsin (Bos taurus, UniProt P00760); assay: Anti-trypsin activity (hydrolysis of TAME); type: biochemical; conditions: for IC50: molar concentration inhibiting 50% of TAME hydrolysis, read-out: Trypsin ID50
T3 sequence (P00760 24-246): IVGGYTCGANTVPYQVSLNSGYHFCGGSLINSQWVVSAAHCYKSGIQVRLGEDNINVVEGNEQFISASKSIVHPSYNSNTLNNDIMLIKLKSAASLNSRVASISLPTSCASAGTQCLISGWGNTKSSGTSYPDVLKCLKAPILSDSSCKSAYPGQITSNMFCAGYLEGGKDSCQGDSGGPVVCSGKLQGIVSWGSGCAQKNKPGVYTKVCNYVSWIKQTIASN
Protocol: as §1

[8] = ATEE hydrolysis, read-out: Anti-C1 activity, C1s ID50

Plasmin, sequence (P00747 581-810 limits assumed, species assumed): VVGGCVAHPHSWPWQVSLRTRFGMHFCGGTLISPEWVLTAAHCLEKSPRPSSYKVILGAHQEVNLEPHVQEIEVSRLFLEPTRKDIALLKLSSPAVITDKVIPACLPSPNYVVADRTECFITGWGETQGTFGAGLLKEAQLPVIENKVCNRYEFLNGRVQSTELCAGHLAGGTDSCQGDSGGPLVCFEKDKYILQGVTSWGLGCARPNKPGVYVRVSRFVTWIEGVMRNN
Plasmin, sequence (P00747 97-580 partner limits assumed, species assumed): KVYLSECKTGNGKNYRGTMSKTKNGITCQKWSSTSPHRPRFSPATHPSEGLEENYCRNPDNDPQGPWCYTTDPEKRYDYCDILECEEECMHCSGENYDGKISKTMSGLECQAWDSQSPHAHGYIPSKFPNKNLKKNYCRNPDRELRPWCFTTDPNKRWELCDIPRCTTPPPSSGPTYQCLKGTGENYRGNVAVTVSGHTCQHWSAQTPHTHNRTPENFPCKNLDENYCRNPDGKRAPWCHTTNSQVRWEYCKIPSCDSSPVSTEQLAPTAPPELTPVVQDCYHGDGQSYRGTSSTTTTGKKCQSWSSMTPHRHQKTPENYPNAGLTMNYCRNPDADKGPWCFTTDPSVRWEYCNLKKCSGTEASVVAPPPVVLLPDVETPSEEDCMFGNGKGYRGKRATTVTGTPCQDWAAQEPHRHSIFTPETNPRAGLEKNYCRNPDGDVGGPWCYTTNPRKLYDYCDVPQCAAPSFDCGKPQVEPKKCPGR

| SMILES | IC50 [1, 8] [nM] | IC50 [2] [nM] | Kallikrein percentage inhibition [3] [%] | IC50 [4] [nM] | IC50 [5] [nM] | Inhibition of complement mediated hemolysis (%) ([6]; 1 × 10^-4) | Inhibition of complement mediated hemolysis (%) ([6]; 1 × 10^-5) | Inhibition of complement mediated hemolysis (%) ([6]; 1 × 10^-6) | Inhibition of complement mediated hemolysis (%) ([6]; 1 × 10^-7) | IC50 [7] [nM] | inhibition at 10 µM [4] [%] | inhibition at 10 µM [5] [%] | IC50 [1] [nM] | inhibition at 10 µM ([2]; at 1×10^-5 M, read-out: Anti-C1 activity, C1r percent inhibition) [%] | inhibition at 10 µM ([7]; at 1×10^-5 M, read-out: Trypsin percentage inhibition) [%] |
| --- | --- | --- | --- | --- | --- | --- | --- | --- | --- | --- | --- | --- | --- | --- | --- |
| CC(=O)c1ccc(C(=O)Oc2ccc3cc(C(=N)N)ccc3c2)cc1 [Compound 32] | 3000 | 2000 | 26 | 3000 | 4000 | 93 | 97 | 67 | 22 | 2000 | – | – | – | – | – |
| Cc1cccc(C(=O)Oc2ccc3cc(C(=N)N)ccc3c2)c1 [Compound 3, 6-amidino-2-naphthyl 3-methylbenzoate] | 2000 | 1000 | 38 | 4000 | 4000 | 97 | 60 | 8 | 11 | 2000 | – | – | – | – | – |
| CCCCOc1ccc(C(=O)Oc2ccc3cc(C(=N)N)ccc3c2)cc1 [Compound 8] | 400 | 10000 | 43 | – | – | 46 | 18 | 23 | – | 40 | 17 | 29 | – | – | – |
| N=C(N)c1ccc2cc(OC(=O)c3ccc(F)cc3)ccc2c1 [Compound 15] | – | – | 38 | 1000 | 2000 | 98 | 89 | 23 | 2 | 3000 | – | – | 300 | – | – |
| N=C(N)c1ccc2cc(OC(=O)c3ccc4c(c3)OCO4)ccc2c1 [Compound 10] | 200 | 200 | 31 | 50000 | 4000 | 97 | 75 | 9 | 2 | 200 | – | – | – | – | – |
| N=C(N)c1ccc2cc(OC(=O)c3ccc(Br)cc3)ccc2c1 [Compound 17] | 500 | 700 | 23 | 2000 | – | 98 | 72 | 9 | 0 | 4000 | – | – | – | – | – |
| COc1ccc(C(=O)Oc2ccc3cc(C(=N)N)ccc3c2)cc1 [Compound 7] | 200 | 100 | 46 | 3000 | 3000 | 51 | 78 | 21 | 0 | – | – | – | – | – | – |
| CN(C(=N)N)c1ccc(C(=O)Oc2ccc3cc(C(=N)N)ccc3c2)cc1 [Compound 28, 6-amidino-2-naphthyl 4-(Nα-methyl)guanidinobenzoate] | 300 | 3000 | 20 | 600 | – | 100 | 99 | 60 | 6 | 600 | – | 17 | – | – | – |
| N=C(N)c1ccc2cc(OC(=O)c3ccc(Cl)cc3)ccc2c1 [Compound 16] | 400 | – | 31 | 500 | – | 99 | 77 | 24 | 10 | 3000 | – | 38 | – | 39 | – |
| CSc1ccc(C(=O)Oc2ccc3cc(C(=N)N)ccc3c2)cc1 [Compound 30] | 300 | 500 | 41 | 2000 | 4000 | 14 | 90 | 40 | 6 | 2000 | – | – | – | – | – |
| N=C(N)c1ccc2cc(OC(=O)c3cccc(C(F)(F)F)c3)ccc2c1 [Compound 33] | 3000 | 1000 | 13 | 3000 | – | 75 | 39 | 7 | 22 | 8000 | – | 40 | – | – | – |
| N#Cc1ccc(C(=O)Oc2ccc3cc(C(=N)N)ccc3c2)cc1 [Compound 19] | 8000 | 4000 | 11 | 3000 | 2000 | 98 | 86 | 22 | 1 | – | – | – | – | – | 47 |
| N=C(N)c1ccc2cc(OC(=O)c3ccc(O)cc3)ccc2c1 [Compound 11, 6-amidino-2-naphthyl 4-hydroxybenzoate] | 200 | 100 | 21 | – | 7000 | 96 | 56 | 6 | 13 | 300 | 36 | – | – | – | – |
